Assay results taken from US10662205B2, “Cyclic boronic acid ester derivatives and therapeutic uses thereof” (priority 2014, dated 2020).
Where two headings read alike, the source gives them in different places.

What was measured:
[1] = system: ec308 (SHV-5); test: Tigemonam potentiation (MPC@4); assay type: cell-based; details: tigemonam 4 μg/mL
[2] = system: ec302 (TEM-10); test: Tigemonam potentiation (MPC@4); assay type: cell-based; details: tigemonam 4 μg/mL
[3] = system: EC1010 (CMY-6); test: Aztreonam potentiation (MPC@4); assay type: cell-based; details: aztreonam 4 μg/mL
[4] = system: KP1004 (KPC-2); test: Biapenem potentiation (MPC@1); details: biapenem 1 μg/mL
[5] = molecular target: CMY-2 (Klebsiella pneumoniae, UniProt Q48434); test: Inhibition of nitrocefin cleavage by purified enzyme (Ki); assay type: biochemical
Protocol: (§1) Ki values of inhibition of purified class A, C and D enzymes were determined spectrophotometrically using nitrocefin as reporter substrate. Purified enzymes were mixed with various concentrations of inhibitors in reaction buffer and incubated for 10 min at room temperature. Nitrocefin was added and substrate cleavage profiles were recorded at 490 nm every 10 sec for 10 min. These experiments confirmed that the described compounds are inhibitors with a broad-spectrum of activity towards various β-lactamases.

[6] = molecular target: KPC-2 (Klebsiella pneumoniae, UniProt Q9F663); test: as above; assay type: biochemical; details: nitrocefin reporter substrate; 10 min preincubation; read-out: Ki KPC-2, NCF
Protocol: as §1

[7] = molecular target: OXA-48 (Klebsiella pneumoniae, UniProt Q6XEC0); test: as above; assay type: biochemical; details: nitrocefin reporter substrate; 10 min preincubation; read-out: Ki OXA-48, NCF
Protocol: as §1

[8] = molecular target: CTX-M-14 (Escherichia coli, UniProt Q9L5C7); test: as above; assay type: biochemical; details: nitrocefin reporter substrate; 10 min preincubation; read-out: Ki CTX-M-14, NCF
Protocol: as §1, with “min.” for “min. These experiments confirmed that the described compounds are inhibitors with a broad-spectrum of activity towards various β-lactamases.”

[9] = system: ec308 (SHV-5); test: Aztreonam potentiation (MPC@4); assay type: cell-based; details: aztreonam 4 μg/mL
[10] = system: ECL1002; test: Tigemonam potentiation (MPC@4); assay type: cell-based; details: tigemonam 4 μg/mL
[11] = system: KP1086 (OXA-48); test: Biapenem potentiation (MPC@1); details: biapenem 1 μg/mL
[12] = system: ECL1002; test: Aztreonam potentiation (MPC@4); assay type: cell-based; details: aztreonam 4 μg/mL
[13] = system: KP1009 (CTX-M-15); test: Tigemonam potentiation (MPC@4); assay type: cell-based
[14] = system: KP1010 (SHV-12); test: Tigemonam potentiation (MPC@4); assay type: cell-based
[15] = system: ec302 (TEM-10); test: Aztreonam potentiation (MPC@4); assay type: cell-based; details: aztreonam 4 μg/mL
[16] = system: KP1009 (CTX-M-15); test: Aztreonam potentiation (MPC@4); assay type: cell-based; details: aztreonam 4 μg/mL
[17] = system: EC1010 (CMY-6); test: Tigemonam potentiation (MPC@4); assay type: cell-based
[18] = system: KP1010 (SHV-12); test: Aztreonam potentiation (MPC@4); assay type: cell-based; details: aztreonam 4 μg/mL
[19] = system: KP1005 (CTX-M-14); test: Aztreonam potentiation (MPC@4); assay type: cell-based; details: aztreonam 4 μg/mL
[20] = system: KP1005 (CTX-M-14); test: Tigemonam potentiation (MPC@4); assay type: cell-based; details: tigemonam 4 μg/mL
[21] = system: KP1004 (KPC-2); test: Aztreonam potentiation (MPC@4); assay type: cell-based; details: aztreonam 4 μg/mL
[22] = system: PAM1032/KPC-2; test: Biapenem potentiation MPC64, efflux proficient strain; assay type: cell-based, Pseudomonas aeruginosa; design: unit not given here; details: efflux proficient (MexAB-OprM overexpressed); decrease biapenem MIC 64-fold, 32 to 0.5 μg/ml
Protocol: (§2) Efflux of BLIs from Pseudomonas aeruginosa by the MexAB-OprM efflux pump was also evaluated. The plasmid expressing the gene encoding KPC-2 was introduced into two strains of P. aeruginosa, PAM1032 and PAM1154 that overexpressed or lacked MexAB-OprM, respectively. Due to expression of KPC-2 both strains became resistant to biapenem. […] Potency of BLIs to potentiate biapenem in these strains was determined. […] The ratio of MPC64 values for each BLI in PAM1032/KPC-2 (efflux proficient) and PAM1154/KPC-2 (efflux deficient) was determined to generate the Efflux Index (EI).

[23] = molecular target: SHV-12 (Klebsiella pneumoniae, UniProt P0AD64, E235K/G234S/L31Q); test: Inhibition of nitrocefin cleavage by purified enzyme (Ki); assay type: biochemical
Protocol: as §1, with “min.” for “min. These experiments confirmed that the described compounds are inhibitors with a broad-spectrum of activity towards various β-lactamases.”

[24] = molecular target: P99 (Enterobacter cloacae, UniProt P05364); test: biochemical; details: nitrocefin reporter substrate; 10 min preincubation; read-out: Ki P99, NCF
Protocol: as §1, with “min.” for “min. These experiments confirmed that the described compounds are inhibitors with a broad-spectrum of activity towards various β-lactamases.”

[25] = system: PAM1154/KPC-2; test: Biapenem potentiation MPC64, efflux deficient strain; assay type: cell-based, Pseudomonas aeruginosa; design: unit not given here; details: efflux deficient (lacks MexAB-OprM); decrease biapenem MIC 64-fold, 32 to 0.5 μg/ml
Protocol: as §2

[26] = nitrocefin reporter substrate, 10 min preincubation, read-out: Ki CMY-2, NCF
[27] = tigemonam 4 μg/mL, EC1010, CMY-6

Sequence of KPC-2 (Q9F663 25-293, looked up, species assumed): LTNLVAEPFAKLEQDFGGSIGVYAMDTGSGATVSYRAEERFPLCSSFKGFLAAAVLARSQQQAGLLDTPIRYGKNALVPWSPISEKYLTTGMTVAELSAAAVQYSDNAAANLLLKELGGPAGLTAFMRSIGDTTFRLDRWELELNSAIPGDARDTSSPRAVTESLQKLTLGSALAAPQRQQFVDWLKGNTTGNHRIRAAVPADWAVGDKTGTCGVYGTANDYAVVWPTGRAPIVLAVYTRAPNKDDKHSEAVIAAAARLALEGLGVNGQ
Sequence of CTX-M-14 (Q9L5C7 29-291): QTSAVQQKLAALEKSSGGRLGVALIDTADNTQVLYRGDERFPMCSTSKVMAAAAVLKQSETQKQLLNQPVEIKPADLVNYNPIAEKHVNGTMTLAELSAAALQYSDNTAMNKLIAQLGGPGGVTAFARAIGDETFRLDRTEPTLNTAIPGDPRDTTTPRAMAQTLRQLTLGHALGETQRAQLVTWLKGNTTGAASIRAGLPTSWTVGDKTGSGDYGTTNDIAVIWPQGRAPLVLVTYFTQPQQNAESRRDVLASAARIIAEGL
Sequence of OXA-48 (Q6XEC0 23-265, looked up, species assumed): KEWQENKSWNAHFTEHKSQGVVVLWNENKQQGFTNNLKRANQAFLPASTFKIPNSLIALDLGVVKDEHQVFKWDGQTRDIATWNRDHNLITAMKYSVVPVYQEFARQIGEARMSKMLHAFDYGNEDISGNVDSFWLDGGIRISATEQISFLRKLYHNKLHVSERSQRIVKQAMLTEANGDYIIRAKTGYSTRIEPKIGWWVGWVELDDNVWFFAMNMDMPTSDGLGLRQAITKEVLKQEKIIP
Sequence of SHV-12 (P0AD64 22-286 L31Q/G234S/E235K): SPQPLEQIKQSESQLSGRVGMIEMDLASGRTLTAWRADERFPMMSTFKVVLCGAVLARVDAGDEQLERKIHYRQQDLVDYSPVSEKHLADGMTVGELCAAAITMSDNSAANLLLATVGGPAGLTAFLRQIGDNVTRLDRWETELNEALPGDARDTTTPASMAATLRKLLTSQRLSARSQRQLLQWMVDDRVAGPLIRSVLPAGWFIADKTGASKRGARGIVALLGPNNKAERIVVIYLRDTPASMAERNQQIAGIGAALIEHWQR
Sequence of P99 (P05364 21-381): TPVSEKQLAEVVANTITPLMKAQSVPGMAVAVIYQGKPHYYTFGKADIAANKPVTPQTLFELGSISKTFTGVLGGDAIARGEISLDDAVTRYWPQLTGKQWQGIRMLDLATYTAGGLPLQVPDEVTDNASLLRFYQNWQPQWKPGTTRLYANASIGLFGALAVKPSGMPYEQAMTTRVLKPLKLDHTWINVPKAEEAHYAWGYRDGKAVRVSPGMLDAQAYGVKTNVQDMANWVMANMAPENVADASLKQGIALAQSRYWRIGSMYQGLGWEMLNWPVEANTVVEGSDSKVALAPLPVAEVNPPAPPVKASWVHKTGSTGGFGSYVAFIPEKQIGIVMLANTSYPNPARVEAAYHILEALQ
Sequence of CMY-2 (Q48434 21-381, species assumed): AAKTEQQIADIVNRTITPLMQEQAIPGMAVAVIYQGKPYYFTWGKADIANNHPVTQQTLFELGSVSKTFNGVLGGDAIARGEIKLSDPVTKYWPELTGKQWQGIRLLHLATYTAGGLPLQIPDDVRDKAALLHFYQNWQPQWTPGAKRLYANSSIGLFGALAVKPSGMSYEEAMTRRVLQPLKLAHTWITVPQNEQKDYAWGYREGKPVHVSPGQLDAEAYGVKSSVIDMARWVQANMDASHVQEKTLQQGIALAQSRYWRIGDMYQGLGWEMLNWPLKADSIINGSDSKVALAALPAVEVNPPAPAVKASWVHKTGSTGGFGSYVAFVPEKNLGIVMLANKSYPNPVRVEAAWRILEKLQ

| Structure (SMILES) | MPC@4 tigemonam potentiation [1] | MPC@4 tigemonam potentiation [2] | MPC@4 aztreonam potentiation [3] | MPC@1 biapenem potentiation [4] | Ki [5, 26] [nM] | Ki [6] [nM] | Ki [7] [nM] | Ki [8] [nM] | MPC@4 aztreonam potentiation [9] | MPC@4 tigemonam potentiation [10] | MPC@1 biapenem potentiation [11] | MPC@4 aztreonam potentiation [12] | MPC@4 tigemonam potentiation [13] | MPC@4 tigemonam potentiation [14] | MPC@4 aztreonam potentiation [15] | MPC@4 aztreonam potentiation [16] | MPC@4 aztreonam potentiation [18] | MPC@4 aztreonam potentiation [19] | MPC@4 tigemonam potentiation [20] | MPC@4 aztreonam potentiation [21] | also measured |
| --- | --- | --- | --- | --- | --- | --- | --- | --- | --- | --- | --- | --- | --- | --- | --- | --- | --- | --- | --- | --- | --- |
| O=C(O)[C@H]1/C(=C/CO)O[C@@H]2CC(=O)N21 [Clavulanic Acid, reference compound] | X (X = MPC@4 ≤ 5 μg/mL) | X (X = MPC@4 ≤ 5 μg/mL) | Z (Z = MPC@4 > 20 μg/mL) | Y (Y = 5 μg/mL < MPC@1 ≤ 20 μg/mL) | > 1000 | > 1000 | > 1000 | < 100 | X (X = MPC@4 ≤ 5 μg/mL) | Y (Y = 5 μg/mL < MPC@4 ≤ 20 μg/mL) | Z (Z = MPC@1 > 20 μg/mL) | Z (Z = MPC@4 > 20 μg/mL) | X (key: X = MPC@4 ≤ 5 μg/mL; Y = 5 μg/mL < MPC@4 ≤ 20 μg/mL; Z = MPC@4 > 20 μg/mL) | X (key: X = MPC@4 ≤ 5 μg/mL; Y = 5 μg/mL < MPC@4 ≤ 20 μg/mL; Z = MPC@4 > 20 μg/mL) | X (X = MPC@4 ≤ 5 μg/mL) | X (X = MPC@4 ≤ 5 μg/mL) | X (X = MPC@4 ≤ 5 μg/mL) | X (X = MPC@4 ≤ 5 μg/mL) | X (X = MPC@4 ≤ 5 μg/mL) | Z (Z = MPC@4 > 20 μg/mL) | MPC@4 tigemonam potentiation [17]: Y (key: X = MPC@4 ≤ 5 μg/mL; Y = 5 μg/mL < MPC@4 ≤ 20 μg/mL; Z = MPC@4 > 20 μg/mL) |
| N#CCSCC(=O)N[C@H]1CC=C[C@@H]2CC(=O)OB1O2 [Compound 2, 2-(CYANOMETHYLTHIO)-N-((2R,6S)-8-OXO-9,10-DIOXA-1-BORABICYCLO[4.3.1]DEC-4-EN-2-YL)ACETAMIDE] | X (X = MPC@4 ≤ 5 μg/mL) | Y (Y = 5 μg/mL < MPC@4 ≤ 20 μg/mL) | X (X = MPC@4 ≤ 5 μg/mL) | X (X = MPC@1 ≤ 5 μg/mL) | < 100 | 100 to 1000 | 100 to 1000 | < 100 | X (X = MPC@4 ≤ 5 μg/mL) | X (X = MPC@4 ≤ 5 μg/mL) | Z (Z = MPC@1 > 20 μg/mL) | X (X = MPC@4 ≤ 5 μg/mL) | X (key: X = MPC@4 ≤ 5 μg/mL; Y = 5 μg/mL < MPC@4 ≤ 20 μg/mL; Z = MPC@4 > 20 μg/mL) | X (key: X = MPC@4 ≤ 5 μg/mL; Y = 5 μg/mL < MPC@4 ≤ 20 μg/mL; Z = MPC@4 > 20 μg/mL) | X (X = MPC@4 ≤ 5 μg/mL) | X (X = MPC@4 ≤ 5 μg/mL) | X (X = MPC@4 ≤ 5 μg/mL) | X (X = MPC@4 ≤ 5 μg/mL) | X (X = MPC@4 ≤ 5 μg/mL) | X (X = MPC@4 ≤ 5 μg/mL) | PAM1032/KPC-2 Biapenem MPC64 [22]: 80; Ki [23]: < 100 nM; Ki [24]: < 100 nM; MPC@4 tigemonam potentiation [17, 27]: X (X = MPC@4 ≤ 5 μg/mL); PAM1154/KPC-2 Biapenem MPC64 [25]: 5 |
| O=C(CSc1nncs1)N[C@H]1CC=C[C@@H]2CC(=O)OB1O2 [Compound 7, 2-(1,3,4-THIADIAZOL-2-YLTHIO)-N-((2R,6S)-8-OXO-9,10-DIOXA-1-BORABICYCLO[4.3.1]DEC-4-EN-2-YL)ACETAMIDE] | X (X = MPC@4 ≤ 5 μg/mL) | Y (Y = 5 μg/mL < MPC@4 ≤ 20 μg/mL) | X (X = MPC@4 ≤ 5 μg/mL) | X (X = MPC@1 ≤ 5 μg/mL) | < 100 | 100 to 1000 | < 100 | < 100 | X (X = MPC@4 ≤ 5 μg/mL) | X (X = MPC@4 ≤ 5 μg/mL) | Z (Z = MPC@1 > 20 μg/mL) | X (X = MPC@4 ≤ 5 μg/mL) | X (key: X = MPC@4 ≤ 5 μg/mL; Y = 5 μg/mL < MPC@4 ≤ 20 μg/mL; Z = MPC@4 > 20 μg/mL) | X (key: X = MPC@4 ≤ 5 μg/mL; Y = 5 μg/mL < MPC@4 ≤ 20 μg/mL; Z = MPC@4 > 20 μg/mL) | X (X = MPC@4 ≤ 5 μg/mL) | X (X = MPC@4 ≤ 5 μg/mL) | X (X = MPC@4 ≤ 5 μg/mL) | X (X = MPC@4 ≤ 5 μg/mL) | X (X = MPC@4 ≤ 5 μg/mL) | X (X = MPC@4 ≤ 5 μg/mL) | PAM1032/KPC-2 Biapenem MPC64 [22]: 40; Ki [23]: < 100 nM; Ki [24]: < 100 nM; MPC@4 tigemonam potentiation [17, 27]: X (X = MPC@4 ≤ 5 μg/mL); PAM1154/KPC-2 Biapenem MPC64 [25]: 5 |
| Cc1nnc(SCC(=O)N[C@H]2CC=C[C@@H]3CC(=O)OB2O3)s1 [Compound 8, 2-(5-METHYL-1,3,4-THIADIAZOL-2-YLTHIO)-N-((2R,6S)-8-OXO-9,10-DIOXA-1-BORABICYCLO[4.3.1]DEC-4-EN-2-YL)ACETAMIDE] | Y (Y = 5 μg/mL < MPC@4 ≤ 20 μg/mL) | Y (Y = 5 μg/mL < MPC@4 ≤ 20 μg/mL) | Y (Y = 5 μg/mL < MPC@4 ≤ 20 μg/mL) | X (X = MPC@1 ≤ 5 μg/mL) | < 100 | 100 to 1000 | < 100 | < 100 | X (X = MPC@4 ≤ 5 μg/mL) | X (X = MPC@4 ≤ 5 μg/mL) | Z (Z = MPC@1 > 20 μg/mL) | X (X = MPC@4 ≤ 5 μg/mL) | X (key: X = MPC@4 ≤ 5 μg/mL; Y = 5 μg/mL < MPC@4 ≤ 20 μg/mL; Z = MPC@4 > 20 μg/mL) | X (key: X = MPC@4 ≤ 5 μg/mL; Y = 5 μg/mL < MPC@4 ≤ 20 μg/mL; Z = MPC@4 > 20 μg/mL) | X (X = MPC@4 ≤ 5 μg/mL) | – | X (X = MPC@4 ≤ 5 μg/mL) | X (X = MPC@4 ≤ 5 μg/mL) | Y (Y = 5 μg/mL < MPC@4 ≤ 20 μg/mL) | Y (Y = 5 μg/mL < MPC@4 ≤ 20 μg/mL) | Ki [23]: < 100 nM; Ki [24]: < 100 nM; MPC@4 tigemonam potentiation [17, 27]: X (X = MPC@4 ≤ 5 μg/mL) |
| C[C@]1(Cn2ccnn2)[C@H](C(=O)O)N2C(=O)C[C@H]2S1(=O)=O [Tazobactam, reference compound] | X (X = MPC@4 ≤ 5 μg/mL) | X (X = MPC@4 ≤ 5 μg/mL) | Y (Y = 5 μg/mL < MPC@4 ≤ 20 μg/mL) | Z (Z = MPC@1 > 20 μg/mL) | – | > 1000 | 100 to 1000 | – | – | – | Y (Y = 5 μg/mL < MPC@1 ≤ 20 μg/mL) | Z (Z = MPC@4 > 20 μg/mL) | – | – | X (X = MPC@4 ≤ 5 μg/mL) | Y (Y = 5 μg/mL < MPC@4 ≤ 20 μg/mL) | X (X = MPC@4 ≤ 5 μg/mL) | Y (Y = 5 μg/mL < MPC@4 ≤ 20 μg/mL) | – | Z (Z = MPC@4 > 20 μg/mL) | Ki [5]: 100 to 1000 nM; MPC@4 tigemonam potentiation ([13]; tigemonam 4 μg/mL, KP1009, CTX-M-15): Y (Y = 5 μg/mL < MPC@4 ≤ 20 μg/mL); MPC@4 tigemonam potentiation ([14]; tigemonam 4 μg/mL, KP1010, SHV-12): X (X = MPC@4 ≤ 5 μg/mL); MPC@4 tigemonam potentiation [17, 27]: X (X = MPC@4 ≤ 5 μg/mL) |
